Measured values reported in patent US12636291B2, “Compositions and methods relating to use of agonists of ALPHA5-containing GABAA receptors” (Centre for Addiction and Mental Health, priority 2019, dated 2026).

Columns and labels:
[1] = system: heterozygous 5×FAD mice; test: Spontaneous alternation in the Y-Maze, 5×FAD Alzheimer's disease model pilot; type: in vivo, mouse; settings: 6 months of age, acute i.p. 10 mg/kg vs vehicle, FIG. 23
Experimental: A pilot study was performed in the 5×FAD mouse Alzheimer's disease model system using 15 heterozygous animals tested from the age of 4 to 6 months. The same animals were tested monthly for spontaneous alternation in the Y-Maze test. When they reached the age of 6 months, 50% of the animals were injected i.p. with vehicle or with GL-II-73 (10 mg/kg).
Animals: For the experiments described above, young (n=11, age 2 months) and old male mice (N=23) were purchased from Charles River. Old mice were obtained at the age of 9-10 months and were kept in the animal facility until they reached the age of 22 months. Young mice (2 months old) were purchased when old mice had already reached the age of 22 months. All animals were single housed. Experiments were performed on mice aged 2 months (“young”) or 22 months (“old”) at the beginning of the experimental protocol. The second set of experiments with the Washout group included 8 young mice and 22 old mice. Old mice were split into 3 groups of 7-8 between “Old”, “Old-treated” and “Old-Washout”. […]
Spontaneous alternation in the Y-Maze: Mice were tested in a Y maze test as an assessment of working memory. […] The alternation rate was calculated and was expressed as a percentage: […]

[2] = system: cultured pyramidal neurons; test: Morphology of cultured GFP-expressing pyramidal neurons after acute treatment; type: cell-based, mouse; settings: 1 μM, 24 hrs, vs vehicle (0.01% DMSO); FIG. 11A-B; initial data
Experimental: Transgenic mice were generated to express a fluorescent protein (GFP) only in pyramidal neurons. Embryos were collected at E17, and brain homogenates were plated and cultured under suitable conditions for neuronal growth. Following 2 weeks of incubation and growth, the compound GL-II-73 (1 μM) or vehicle was applied and left for 24 hrs. Isolated cells were then used to image the entire neuron and visualize dendrites and spines on a single neuron.

C#Cc1ccc2c(c1)C(c1ccccc1F)=N[C@H](C)c1c(C(=O)N(C)C)ncn1-2 (stereo in doubt) [GL-II-73, 8-ethynyl-6-(2-fluorophenyl)-N,N,4-trimethyl-4H-benzo[f]imidazo[1,5-a][1,4]diazepine-3-carboxamide]
alternation performance in the Y-Maze test [1]: a reversal of this decrease in alternation performance in the GL-II-73 treated group, although also not reaching statistical significance
dendritic length [2]: longer dendrites
spine density (spines) [2]: more spines
